Broadly, the IC50 is the concentration needed to halve the response being measured.

Active and inactive are the calls of the source.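 How the source made its calls: active means maximal inhibition of USP17 at or above 30% in the confirmation dose-response, a value not among the printed readouts; inactive means the rest.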 Bounds are passed on as bounds.

The target in this assay is Ubiquitin carboxyl-terminal hydrolase 17-like protein 5 (Homo sapiens) (UniProt A8MUK1). Briefly: ubiquitin-specific protease 17 inhibitors, concentration series, biochemical, verification of primary actives (AID 1645864). Conditions: purified USP17, ubiquitin-rhodamine cleavage fluorescence, 3 h.
Chain of Ubiquitin carboxyl-terminal hydrolase 17-like protein 5 (Homo sapiens) (A8MUK1 whole entry, looked up): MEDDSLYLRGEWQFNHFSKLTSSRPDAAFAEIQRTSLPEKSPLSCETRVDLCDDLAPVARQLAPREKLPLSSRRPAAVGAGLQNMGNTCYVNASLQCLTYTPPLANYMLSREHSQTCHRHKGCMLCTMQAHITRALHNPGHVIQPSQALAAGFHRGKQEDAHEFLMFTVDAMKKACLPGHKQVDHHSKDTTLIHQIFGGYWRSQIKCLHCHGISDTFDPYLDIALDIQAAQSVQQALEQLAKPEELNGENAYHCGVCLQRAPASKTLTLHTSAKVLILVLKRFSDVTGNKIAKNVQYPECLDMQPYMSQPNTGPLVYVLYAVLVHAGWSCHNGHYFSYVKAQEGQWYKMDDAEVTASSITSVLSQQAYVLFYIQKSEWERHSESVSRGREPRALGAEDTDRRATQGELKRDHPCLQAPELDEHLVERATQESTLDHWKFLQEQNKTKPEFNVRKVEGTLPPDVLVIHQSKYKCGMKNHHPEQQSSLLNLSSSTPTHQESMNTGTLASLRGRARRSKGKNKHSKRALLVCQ
As for `CCCCN(C)C(=O)c1cc2c(=O)n3cccc(C)c3nc2n1Cc1ccccc1`, the IC50 is 39.8 µM. The result for `O=C(COc1ccc(Cl)cc1)N1CCc2cc3ccccc3nc21` reads 2.41 µM; that for `CC(=O)NCc1nc(-c2ccc3c(c2)nc(C)c(=O)n3C2CCCC2)no1`, > 50 µM (inactive). For `CC(C)c1nc2sc3c(NCc4ccco4)ncnc3c2c2c1CCC2`, the IC50 is > 50 µM (inactive).

With `CC1CS(=O)(=O)N(c2ccc(C(=O)Nc3ccc4c(c3)OCCO4)cc2)C1=O` (configuration not stated), the IC50 was 35.6 µM. Regarding `Cc1nc(-c2noc(-c3ccncc3)n2)cn1CC(=O)N1CCN(c2ccc(F)cc2)CC1`, the IC50 was > 50 µM (inactive). With `Cc1ccc(C(=O)c2cn(CC(=O)Nc3ccccc3)c3ccc(C)cc3c2=O)cc1`, the IC50 was 10.9 µM. Take `CN(C(=O)c1ccncc1)[C@H]1CC[C@@]2(C)C[C@H](c3ccccc3)C[C@](C)(O2)[C@@H]1O`: the IC50 is > 50 µM (inactive). For the compound `CC1OC(CC(=O)O)CC23OC12C(=O)c1c(O)cccc1C3=O` (configuration not stated), the IC50 was 1.33 µM. The result for `O=C(COC(=O)c1ccc(Cl)cc1)Nc1ccc2[nH]c(=O)[nH]c2c1` reads 9.91 µM; that for `Cc1cccc(NC(=O)CSc2ncnc3c2sc2nc(CC(C)C)c4c(c23)CCC4)c1`, 44.1 µM. On to `Cc1ccn(-c2ccc(NC(=O)C3CCCCC3)cc2)n1`, for which the IC50 was 20.2 µM. `Cc1ccc(Cn2c(=O)c3ccccc3n3c(CCC(=O)N4CCN(c5ccccn5)CC4)nnc23)cc1`: the IC50 was 11.8 µM. Take `COc1cc(OC)cc(C(=O)Nc2cnc(-c3ccccc3)nc2)c1`: the IC50 is > 50 µM (inactive). Take `CCOc1cc(C2C3=C(CC(C)(C)CC3=O)Nc3onc(C)c32)ccc1O` (configuration not stated): the IC50 was 39.7 µM. Consider `c1ccc2c(c1)CCc1c-2nc2ccccc2c1N1CCOCC1`, for which the IC50 is > 50 µM (inactive). As to `Cn1c(SCc2ccccc2)nnc1-c1csc(-c2ccccc2)n1`, the IC50 is 39 µM. To `CCn1cc(-c2nc(-c3ccccn3)no2)c(=O)c2cc(F)ccc21` belongs 32.5 µM; to `Cn1c(=O)/c(=C/c2ccccc2)[nH]c(=O)/c1=C/c1ccccc1`, 5.8 µM; to `O=C(CSc1ncnc2c1sc1cccc(F)c12)N1CCCCCC1`, > 50 µM (inactive). Take `N[C@@H](Cc1ccccc1)C(=O)N1CCC2(CC1)CN(C(=O)c1ccc(Cl)cc1)CCO2`: the IC50 is > 50 µM (inactive). For the compound `O=[N+]([O-])c1ccc(N2CCN(c3ncnc4c3[nH]c3ccc(F)cc34)CC2)cc1`, the IC50 is 0.247 µM. Regarding `Cc1ccc(C2c3c(-c4ccccc4O)n[nH]c3C(=O)N2Cc2ccco2)cc1` (configuration not stated), the IC50 was 28.1 µM.

Turning to `CC1CCN(S(=O)(=O)c2ccc(C(=O)Nc3ccc(S(N)(=O)=O)cc3)cc2)CC1`, the IC50 was 38.3 µM. Turning to `CCCn1cc(C(=O)N2CCC3(CC2)CC2(CO3)Nc3ccccc3-n3cccc32)c(C)n1` (configuration not stated), the IC50 is 27.6 µM. With `COC1=C(C2=C(OC)C(=O)c3cc4c(c(O)c3C2=O)C(=O)OC(C)C4)C(=O)c2c(cc3c(c2O)C(=O)OC(C)C3)C1=O` (configuration not stated), the IC50 was 0.0977 µM. `Cc1cc(C2CC(=O)Nc3c2c(C)nn3-c2nc3ccccc3[nH]2)c(C)s1` (configuration not stated): the IC50 was 23 µM. Turning to `COc1cccc(NC(=O)CCc2c(C)nn(-c3cc(N4CCCCC4)ncn3)c2C)c1`, the IC50 was > 50 µM (inactive).

Turning to `C=C1Nc2ccccc2C(=O)N1c1cccc(NC(=O)c2ccc(C)c(C)c2)c1`, the IC50 is > 50 µM (inactive). In the case of `O=C(Nc1ccc(F)c(Cl)c1)c1ccc(N2CCCCS2(=O)=O)cc1Cl`, the IC50 is > 50 µM (inactive). As for `CC(C)c1nc2sc3c(N(CCO)CCO)ncnc3c2c2c1COC(C)(C)C2`, the IC50 was > 50 µM (inactive). With `O=C(c1ccnn1-c1ccc2ccc(-c3ccncc3)cn12)N1CCCC1`, the IC50 is > 50 µM (inactive). To `CC1CCN(c2nnc(-c3nc(C4CC4)no3)c3ccccc23)CC1` belongs > 50 µM (inactive). With `O=C(Nc1cc(F)ccc1F)c1ccn(COc2ccc(F)c(Cl)c2)n1`, the IC50 was 38.4 µM.

On to `CC1CCCCN1c1nc(F)c2c(c1F)S(=O)(=O)CCN2Cc1ccccc1` (configuration not stated), for which the IC50 was > 50 µM (inactive).

Regarding `Fc1cccc(Cn2cc(-c3noc(-c4ccncc4)n3)nn2)c1`, the IC50 is 28.7 µM.

With `N#Cc1c(Cl)cccc1Oc1ccc(S(=O)(=O)N2CCC(O)CC2)cc1`, the IC50 was 27.4 µM. As to `O=C(CNC(=O)c1cc2ccccc2[nH]1)Nc1ccc2c(c1)OCCO2`, the IC50 is 34 µM. `Cc1cc(C(F)(F)F)n(-c2ccc(NC(=O)Nc3cccc(C(F)(F)F)c3)cc2)n1`: the IC50 was 15.4 µM. To `Cc1ccc(-c2c(C(=O)Nc3ccc(S(N)(=O)=O)cc3)oc(=O)c3ccccc23)cc1` belongs 31.9 µM; to `Cc1cn[nH]c1C1COCCN1C(=O)c1ccc2ncccc2c1` (configuration not stated), > 50 µM (inactive); to `COC(=O)c1ccc(Cn2cnc3ccc(F)cc3c2=O)o1`, > 50 µM (inactive).

For `COc1ccc(NC(=O)Cn2c(CS(=O)(=O)c3ccc(C)cc3)nc3ccccc32)cc1`, the IC50 is 6.52 µM. Take `CCOC(=O)CSc1nnc(-c2cnn(-c3ccccc3)c2N)o1`: the IC50 was 20.5 µM. Turning to `COc1cccc2cc(C(=O)Nc3nc(-c4ccncc4)cs3)oc12`, the IC50 was 0.17 µM. Take `O=C1C[C@@H]2O[C@H](CNC(=O)[C@@H]3CN(CCN3C(=O)C3CCOCC3)C(=O)[C@@H]3C[C@@H](CN3Cc3ccc(F)c(F)c3)N1)[C@@H](O)[C@H]2O`: the IC50 is > 50 µM (inactive).

As for `O=S(c1ccc2ccccc2c1)c1cnns1` (configuration not stated), the IC50 is > 50 µM (inactive). As for `NS(=O)(=O)c1cc(C(=O)OCC(=O)c2ccc3c(c2)OCCO3)ccc1Cl`, the IC50 was > 50 µM (inactive). Regarding `Cc1ccc2[nH]c(=O)c(CN(Cc3cccnc3)C(=O)c3cccc(Cl)c3)cc2c1`, the IC50 is > 50 µM (inactive). As for `O=C1C=CC(O)C2C1CC13SSC4(CC5C(=O)C=CC(O)C5N4C1=O)C(=O)N23` (configuration not stated), the IC50 is > 50 µM (inactive). Consider `O=C(CCCCn1c(=O)c2ccccc2n(CC(=O)Nc2ccc(F)c(Cl)c2)c1=O)NCc1ccco1`, for which the IC50 is > 50 µM (inactive).

Take `CCn1cc2c(n1)c(=O)n(Cc1ccccc1)c(=O)n2CC(=O)Nc1ccc(OC)cc1`: the IC50 is 2.91 µM.

On to `Cc1cc(C)n(-c2cccc(C(=O)Nc3ccc4c(c3)CCN4S(C)(=O)=O)c2)n1`, for which the IC50 was > 50 µM (inactive). For `O=C(NCc1ccc(CN2CCCC2)cc1)c1cc2ccccc2[nH]c1=O`, the IC50 is 28.4 µM. In the case of `O=C(Cn1ccc2ccc(N3CCOCC3)nc21)NCc1ccccc1F`, the IC50 is > 50 µM (inactive). As to `CCc1ccc(NC(=O)COC(=O)c2n[nH]c3ccccc23)cc1`, the IC50 was 3.42 µM. As to `CCC(C)c1ccc(O[C@@H]2O[C@@H]3COC(c4ccccc4)O[C@H]3[C@H](O)[C@H]2NC(C)=O)cc1` (some centres not stated), the IC50 was 16.6 µM. Regarding `CCn1cnc2ccc(C(=O)NC3CC3)cc2c1=O`, the IC50 is > 50 µM (inactive). Regarding `O=C(Nc1ccc2c(c1)OCCO2)Nc1nnc(CC(=O)N2CCCCC2)s1`, the IC50 was > 50 µM (inactive). For `CCCCCn1c(Sc2ccc(C)cc2)nc2c1c(=O)[nH]c(=O)n2C`, the IC50 is 16.3 µM. For the compound `Cc1noc(-c2cccc(=O)n2CC(=O)Nc2ccc(C)c(C)c2)n1`, the IC50 is 20.5 µM. For `Cc1ccc(NC(=O)c2ccc(Nc3nnc(C)c4ccccc34)cc2)cc1`, the IC50 is 38.1 µM.

On to `Cc1cccc(NC(=O)Cn2c(N3CCOCC3)nc3cc(C)n(C)c3c2=O)c1`, for which the IC50 was 27.6 µM.

`COc1ccccc1-c1ccc(CN2[C@@H](c3ccccc3)C[C@@H]3NC(=O)CCC[C@H]32)cc1`: the IC50 is > 50 µM (inactive). With `COc1ccc(CCNC(=O)COc2ncnc3oc(C)c(C)c23)cc1OC`, the IC50 was > 50 µM (inactive). Turning to `O=C(/C=C/c1ccc2c(c1)OCO2)Nc1nc2c(s1)COCC2`, the IC50 is 17.4 µM. As for `CC(C(=O)NCc1ccc(F)cc1)n1cccc1C(=O)c1ccccc1` (configuration not stated), the IC50 was > 50 µM (inactive). For the compound `CN1CCC(N(C)S(=O)(=O)c2ccc(NC(=O)c3cccc(OCc4ccccc4)c3)cc2)CC1`, the IC50 is > 50 µM (inactive). For the compound `Cc1cccc(-n2ccnc(SCC(=O)Nc3ccc(Cl)cc3F)c2=O)c1`, the IC50 was 2.21 µM. As to `Cc1sc(-c2cccnc2)nc1OC(=O)c1ccc(Cl)c(Cl)c1`, the IC50 is > 50 µM (inactive).

Turning to `Oc1ccc(-c2nc3cnccn3c2NCCc2ccccc2)c(O)c1`, the IC50 is > 50 µM (inactive).

`O=C(COc1nc2ccccc2nc1N1CCOCC1)Nc1cccc(S(=O)(=O)N2CCCCC2)c1`: the IC50 is > 50 µM (inactive). On to `O=C(Nc1ccc(Cl)cc1F)c1cc(-c2ccccn2)n[nH]1`, for which the IC50 is 0.323 µM. Regarding `Cc1ccc(C(=O)Nc2ccc(S(=O)(=O)N3CCCC3)cc2)cc1Br`, the IC50 was > 50 µM (inactive). Regarding `COc1cc(N)c(Cl)cc1C(=O)OCC(=O)c1ccc2c(c1)OCCO2`, the IC50 was > 50 µM (inactive). As for `CCCCN1CC(C(=O)Nc2ccc(C(=O)Nc3ccc(Cl)cc3)cc2)CC1=O` (configuration not stated), the IC50 was 16.5 µM. The result for `O=C(Nc1ccccc1-c1nc2ccccc2[nH]1)c1sc2ccccc2c1Cl` reads 1.8 µM; that for `Cn1c(CCNC(=O)c2[nH]nc3c2CCc2ccccc2-3)nc2ccccc21`, 32.8 µM; that for `O=C(Cn1ncc2c(N3CCCCCC3)ncnc21)NCc1ccccc1`, > 50 µM (inactive). The result for `CCOC(=O)c1nc(Nc2ccc(OC)c(Cl)c2)c2ccccc2n1` reads 25.3 µM; that for `CC(=O)c1ccc(NC(=O)C[n+]2cc(-c3ccc(Cl)cc3)n3c2CCC3)cc1`, 32.1 µM. Take `COc1cc(OC)cc(-n2c(=O)c3sccc3n(CC(=O)Nc3ccc(C)cc3)c2=O)c1`: the IC50 was 10.1 µM. The result for `COc1cccc(NC(=O)Cc2sc(Nc3cc(C)cc(C)c3)nc2O)c1` reads 17.8 µM; that for `COc1ccc2nc(Nc3nc(-c4cnc(N5CCOCC5)nc4C)cc(=O)[nH]3)nc(C)c2c1`, > 50 µM (inactive); that for `O=C(O)COc1ccccc1/C=C1\CCc2c1nc1ccccc1c2C(=O)O`, > 50 µM (inactive). The result for `CC(=O)Nc1ccc(-n2cnc(C(=O)NCc3ccc(C)cc3)c2)nc1` reads 27.1 µM. Turning to `COc1ccc(CNC(=O)c2[nH]nc3c2CCc2ccccc2-3)cc1`, the 50% inhibitory concentration (IC50) was 35.5 µM.

The values above are taken from PubChem BioAssay AID1645864 (Buhrlage Lab, Dana-Farber Cancer Institute and Novartis …, 2021).
